Test results: US8680275B2, “Fused heterocyclic compounds as orexin receptor modulators” (Janssen Pharmaceutica NV, priority 2009, dated 2014)

How the values were obtained:
[1] = biological target: human orexin-2 receptor (Homo sapiens (Human), UniProt O43614); experiment: Human orexin 2 receptor radioligand binding ([3H]-EMPA competition); conditions: HEK293 cells stably expressing human orexin-2 receptor; [3H]-EMPA 5 nM final; read-out: OR-2 Ki
How it was run: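 Competition binding on HEK293 cells stably expressing human orexin-2 receptor, using 5 nM final [3H]-EMPA in PBS, compounds 0.1 nM to 10 μM (DMSO ≤0.1%). 60 min at room temperature, then filtration and scintillation counting; nonspecific binding defined with 10 μM of a reference antagonist.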

[2] = biological target: human orexin 1 receptor (Homo sapiens (Human), UniProt O43613); experiment: Human orexin 1 receptor radioligand binding ([3H]-SB674042 competition); conditions: CHO cells stably expressing human orexin 1 receptor; [3H]-SB674042 4 nM final; read-out: OR-1 Ki
Sequence of human orexin 1 receptor (O43613 whole entry): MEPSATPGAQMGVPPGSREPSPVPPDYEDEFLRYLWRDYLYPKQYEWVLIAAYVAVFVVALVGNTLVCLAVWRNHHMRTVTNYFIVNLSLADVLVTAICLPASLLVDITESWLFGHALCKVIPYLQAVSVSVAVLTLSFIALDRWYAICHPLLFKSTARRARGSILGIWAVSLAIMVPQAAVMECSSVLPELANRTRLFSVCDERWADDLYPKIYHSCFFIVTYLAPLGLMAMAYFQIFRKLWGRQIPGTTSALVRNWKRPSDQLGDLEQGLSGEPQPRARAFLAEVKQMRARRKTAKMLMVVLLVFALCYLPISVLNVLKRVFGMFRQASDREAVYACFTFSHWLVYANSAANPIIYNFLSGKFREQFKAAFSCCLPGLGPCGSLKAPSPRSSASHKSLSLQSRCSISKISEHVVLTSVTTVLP
How it was run: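 CHO cells stably expressing human OX1R incubated 60 min at room temperature with [3H]-SB674042 and compounds (7 concentrations, 0.1 nM–10 μM; DMSO ≤0.1%) in PBS. Nonspecific binding defined with 10 μM of a reference urea antagonist; bound radioactivity measured by filtration and scintillation counting.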

Sequence of human orexin-2 receptor (O43614 whole entry): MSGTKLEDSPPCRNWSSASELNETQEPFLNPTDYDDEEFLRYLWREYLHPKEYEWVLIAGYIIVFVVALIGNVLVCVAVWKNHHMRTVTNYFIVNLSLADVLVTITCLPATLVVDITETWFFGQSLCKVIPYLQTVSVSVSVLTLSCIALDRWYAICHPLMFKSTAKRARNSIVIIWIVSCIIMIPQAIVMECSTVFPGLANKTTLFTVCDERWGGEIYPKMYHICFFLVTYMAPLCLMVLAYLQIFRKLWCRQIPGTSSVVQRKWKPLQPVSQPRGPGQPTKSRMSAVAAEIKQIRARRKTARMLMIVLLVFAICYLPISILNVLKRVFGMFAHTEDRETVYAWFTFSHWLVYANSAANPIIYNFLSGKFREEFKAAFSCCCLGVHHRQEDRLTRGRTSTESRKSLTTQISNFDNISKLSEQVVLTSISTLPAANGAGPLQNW

SMILES	Ki [1] [nM]	Ki [2] [nM]
Cc1cc(C)nc(N2CC3CN(C(=O)c4ccccc4-c4cccs4)CC32)n1 (stereo not drawn) [Example 57, 6-(4,6-Dimethylpyrimidin-2-yl)-3-[(2-thiophen-2-ylphenyl)carbonyl]-3,6-diazabicyclo[3.2.0]heptane]	29	3570
Cc1cc(N2C[C@@H]3CCN(C(=O)c4c(F)cccc4-c4ncccn4)C[C@@H]32)nc(C(F)(F)F)n1 [Example 92, (1R,6S)-3-[(2-Fluoro-6-pyrimidin-2-ylphenyl)carbonyl]-8-[6-methyl-2-(trifluoromethyl)pyrimidin-4-yl]-3,8-diazabicyclo[4.2.0]octane]	84	220
O=C(c1cccc(F)c1-n1nccn1)N1CC[C@H]2CN(c3cc(C(F)(F)F)ccn3)[C@H]2C1 [Example 145, (1R,6S)-3-{[3-Fluoro-2-(2H-1,2,3-triazol-2-yl)phenyl]carbonyl}-8-[4-(trifluoromethyl)pyridin-2-yl]-3,8-diazabicyclo[4.2.0]octane]	110	3300
Cc1cnc(N2C[C@@H]3CCN(C(=O)c4cc(F)ccc4-n4nccn4)C[C@@H]32)cn1 [Example 104, (1R,6S)-3-{[5-Fluoro-2-(2H-1,2,3-triazol-2-yl)phenyl]carbonyl}-8-(5-methylpyrazin-2-yl)-3,8-diazabicyclo[4.2.0]octane]	342	3540
O=C(c1ccccc1-c1cccs1)N1CC2CN(c3nccc(-c4ccccc4)n3)C2C1 (stereo not drawn) [Example 50, 6-(4-Phenylpyrimidin-2-yl)-3-[(2-thiophen-2-ylphenyl)carbonyl]-3,6-diazabicyclo[3.2.0]heptane]	94	39
Cc1ccc(-c2ncccn2)c(C(=O)N2CC[C@H]3CN(c4nc(C)cc(C)n4)[C@H]3C2)c1 [Example 27, (1R,6S)-[8-(4,6-Dimethyl-pyrimidin-2-yl)-3,8-diaza-bicyclo[4.2.0]oct-3-yl]-(5-methyl-2-pyrimidin-2-yl-phenyl)-methanone]	28	143
Cc1cc(C)nc(N2C[C@@H]3CCN(C(=O)c4cccc(F)c4-c4cc[nH]n4)C[C@@H]32)n1 [Example 184, (1R,6S)-8-(4,6-Dimethylpyrimidin-2-yl)-3-{[3-fluoro-2-(1H-pyrazol-3-yl)phenyl]carbonyl}-3,8-diazabicyclo[4.2.0]octane]	9	156
Cc1cnc(C)c(N2C[C@@H]3CCN(C(=O)c4c(F)cccc4-n4nccn4)C[C@@H]32)n1 [Example 98, (1R,6S)-8-(3,6-Dimethylpyrazin-2-yl)-3-{[2-fluoro-6-(2H-1,2,3-triazol-2-yl)phenyl]carbonyl}-3,8-diazabicyclo[4.2.0]octane]	274	4920
Cc1cc(C)nc(N2C[C@@H]3CCN(C(=O)c4cc(C)c(C)nc4-n4nccn4)C[C@@H]32)n1 [Example 157, (1R,6S)-8-(4,6-Dimethylpyrimidin-2-yl)-3-{[5,6-dimethyl-2-(2H-1,2,3-triazol-2-yl)pyridin-3-yl]carbonyl}-3,8-diazabicyclo[4.2.0]octane]	230	3900
O=C(c1cc(F)ccc1-n1nccn1)N1CC[C@H]2CN(c3cc(C(F)(F)F)ccn3)[C@H]2C1 [Example 130, (1R,6S)-3-{[5-Fluoro-2-(2H-1,2,3-triazol-2-yl)phenyl]carbonyl}-8-[4-(trifluoromethyl)pyridin-2-yl]-3,8-diazabicyclo[4.2.0]octane]	31	1720
Cc1cc(N2C[C@@H]3CCN(C(=O)c4c(F)cccc4-n4nccn4)C[C@@H]32)nc(C(F)(F)F)n1 [Example 32, (1R,6S)-(2-Fluoro-6-[1,2,3]triazol-2-yl-phenyl)-[8-(6-methyl-2-trifluoromethyl-pyrimidin-4-yl)-3,8-diaza-bicyclo[4.2.0]oct-3-yl]-methanone]	13	134
Cc1cnc(-n2nccn2)c(C(=O)N2CC[C@H]3CN(c4nc(C)cc(C)n4)[C@H]3C2)c1 [Example 160, (1R,6S)-8-(4,6-Dimethylpyrimidin-2-yl)-3-{[5-methyl-2-(2H-1,2,3-triazol-2-yl)pyridin-3-yl]carbonyl}-3,8-diazabicyclo[4.2.0]octane]	370	6000
Cc1cc(C)nc(N2C[C@@H]3CCN(C(=O)c4cc(F)ccc4-c4ccn(C)n4)C[C@@H]32)n1 [Example 188, (1R,6S)-8-(4,6-Dimethylpyrimidin-2-yl)-3-{[5-fluoro-2-(1-methyl-1H-pyrazol-3-yl)phenyl]carbonyl}-3,8-diazabicyclo[4.2.0]octane]	35	1300
Cc1cccc(N2C[C@@H]3CCN(C(=O)c4cc(F)ccc4-n4nccn4)C[C@@H]32)n1 [Example 126, (1R,6S)-3-{[5-Fluoro-2-(2H-1,2,3-triazol-2-yl)phenyl]carbonyl}-8-(6-methylpyridin-2-yl)-3,8-diazabicyclo[4.2.0]octane]	149	5470
Cc1cc(C)nc(N2C[C@@H]3CCN(C(=O)c4ccc(C(F)(F)F)nc4-n4ccnn4)C[C@@H]32)n1 [Example 159, (1R,6S)-8-(4,6-Dimethylpyrimidin-2-yl)-3-{[2-(1H-1,2,3-triazol-1-yl)-6-(trifluoromethyl)pyridin-3-yl]carbonyl}-3,8-diazabicyclo[4.2.0]octane]	540	10000
O=C(c1ccccc1-c1cccs1)N1C[C@H]2CN(c3nccc(-c4ccccc4)n3)[C@H]2C1 (single isomer, unassigned) [Example 56, 6-(4-Phenylpyrimidin-2-yl)-3-[(2-thiophen-2-ylphenyl)carbonyl]-3,6-diazabicyclo[3.2.0]heptane]	129	55
COc1cccc(OC)c1C(=O)N1CCC2CN(c3nccc(-c4ccccc4)n3)C2C1 (stereo not drawn) [Example 15, (2,6-Dimethoxy-phenyl)-[8-(4-phenyl-pyrimidin-2-yl)-3,8-diaza-bicyclo[4.2.0]oct-3-yl]-methanone]	257	237
Cc1cc(C)nc(N2C[C@@H]3CCN(C(=O)c4c(F)cccc4-n4nccn4)C[C@@H]32)n1 [Example 29, (1R,6S)-[8-(4,6-Dimethyl-pyrimidin-2-yl)-3,8-diaza-bicyclo[4.2.0]oct-3-yl]-(2-fluoro-6-[1,2,3]triazol-2-yl-phenyl)-methanone]	11	325
Cc1ccc(-n2nccn2)c(C(=O)N2CC[C@H]3CN(c4nc(C)cc(C)n4)[C@H]3C2)c1 [Example 26, (1R,6S)-[8-(4,6-Dimethyl-pyrimidin-2-yl)-3,8-diaza-bicyclo[4.2.0]oct-3-yl]-(5-methyl-2-[1,2,3]triazol-2-yl-phenyl)-methanone]	13	52
Cc1cc(C)nc(N2C[C@@H]3CCN(C(=O)c4ncoc4-c4ccccc4F)C[C@@H]32)n1 [Example 177, (1R,6S)-8-(4,6-Dimethylpyrimidin-2-yl)-3-{[5-(2-fluorophenyl)-1,3-oxazol-4-yl]carbonyl}-3,8-diazabicyclo[4.2.0]octane]	340	2400
Cc1cc(C)nc(N2C[C@@H]3CCN(C(=O)c4cn[nH]c4-c4ccccc4)C[C@@H]32)n1 [Example 174, (1R,6S)-8-(4,6-Dimethylpyrimidin-2-yl)-3-[(5-phenyl-1H-pyrazol-4-yl)carbonyl]-3,8-diazabicyclo[4.2.0]octane]	6000	10000
COc1cccc(OC)c1C(=O)N1CCC2CN(c3cnc4ccccc4n3)C2C1 (stereo not drawn) [Example 12, (2,6-Dimethoxy-phenyl)-(8-quinoxalin-2-yl-3,8-diaza-bicyclo[4.2.0]oct-3-yl)-methanone]	209	659
Cc1ccc(C(=O)N2CC[C@H]3CN(c4nccc(C(F)(F)F)n4)[C@H]3C2)c(-n2ccnn2)n1 [Example 93, (1R,6S)-3-{[6-Methyl-2-(1H-1,2,3-triazol-1-yl)pyridin-3-yl]carbonyl}-8-[4-(trifluoromethyl)pyrimidin-2-yl]-3,8-diazabicyclo[4.2.0]octane]	230	3700
Cc1cnc(-n2ccnn2)c(C(=O)N2CC[C@H]3CN(c4nc(C)cc(C)n4)[C@H]3C2)c1 [Example 161, (1R,6S)-8-(4,6-Dimethylpyrimidin-2-yl)-3-{[5-methyl-2-(1H-1,2,3-triazol-1-yl)pyridin-3-yl]carbonyl}-3,8-diazabicyclo[4.2.0]octane]	280	4500
CN(C)c1cc(N2C[C@@H]3CCN(C(=O)c4cc(F)ccc4-n4nccn4)C[C@@H]32)ncn1 [Example 189, 6-[(1R,6S)-3-{[5-Fluoro-2-(2H-1,2,3-triazol-2-yl)phenyl]carbonyl}-3,8-diazabicyclo[4.2.0]oct-8-yl]-N,N-dimethylpyrimidin-4-amine]	110	4100
CN(C)c1nc(N2C[C@@H]3CCN(C(=O)c4ccccc4-n4nccn4)C[C@@H]32)cc(C(F)(F)F)n1 [Example 36, (1R,6S)-[8-(2-Dimethylamino-6-trifluoromethyl-pyrimidin-4-yl)-3,8-diaza-bicyclo[4.2.0]oct-3-yl]-(2-[1,2,3]triazol-2-yl-phenyl)-methanone]	5	11
Cc1cc(C)nc(N2C[C@@H]3CCN(C(=O)c4cc(F)ccc4-c4ncccn4)C[C@@H]32)n1 [Example 23, (1R,6S)[8-(4,6-Dimethyl-pyrimidin-2-yl)-3,8-diaza-bicyclo[4.2.0]oct-3-yl]-(5-fluoro-2-pyrimidin-2-yl-phenyl)-methanone]	20	619
